# Columns and labels:
# Type in all cases: cell-based, human
# HNDFs [1] = test: SA-β-gal senescence assay in HG-induced HNDFs; conditions: for SA-β-gal positive cells: 10 μM compound + HG 30 mM, 72 h, HG alone 9.59-fold (FIG. 2B); for HG-induced SA-β-gal activity, kinase inhibitors: inhibitor 30 μM + HG 30 mM, 72 h (FIG. 4H)
# Procedure: Next, the protective effects of antcins on HG-induced HNDF senescence are examined. In FIG. 2B, cells were incubated with ANA (10 μM), ANH (10 μM) and ANM (10 μM) in the presence of HG (30 mM) for 72 h. Cellular senescence is determined by SA-β-gal activity. […] After cells are co-incubated with HG and antcins (ANA, ANH and ANM) for 72 h, senescence is measured by SA-β-gal assay.
# Therefore, in order to examine whether the ROS inhibitory effect may be extended to suppress HG-induced senescence, HG-induced senescenece eliminated by ANM is examined. In FIG. 4B, HNDFs are incubated with ANM (10 μM) or NAC (100 μM) in the presence or absence of HG (30 mM) for 72 h. Cellular senescence is determined by SA-β-gal assay. […] As is shown, cells are co-incubated with HG and ANM or NAC for 72 h.
# Senescence-associated β-galactosidase (SA-β-gal) activity is determined in formaldehyde-fixed histochemical staining kit according to the manufacturer's instructions (Cell Signaling Technology, Danvers, Calif.). Briefly, cells are grown in 6-well plates at a density of 5×10^4 cells/well, and incubated with HG or test samples for 48 h (HUVECs) or 72 h (HNDFs). After incubation, cells are stained with SA-β-gal staining solution at pH 6.0 overnight and then the development of blue staining is observed and photographed under a bright-field microscope (Motic Electric Group, Xiamen, P.R. China).
# [2] = system: p16^INK4A, p21^CIP1 and SMP30; test: Western blot of senescence-associated marker proteins in HNDFs; conditions: 10 μM + HG 30 mM, 72 h, western blot
# Procedure: In addition, in FIG. 2C, HNDFs are incubated with ANA (10 μM), ANH (10 μM) and ANM (10 μM) in the presence of HG (30 mM) for 72 h. Senescence-associated marker proteins such as p16^INK4A, p21^CIP1 and SMP30 are determined by western blot analysis.
# In order to assess the cellular and molecular basis of the ANM-mediated inhibition of senescence, the expression levels of senescence-associated marker proteins including, p16^INK4A and p21^CIP1 are examined. In FIG. 4D, to determine the effect of ANM on senescence-associated protein expression, HNDFs are incubated with ANM (10 μM) or NAC (100 μM) in the presence or absence of HG (30 mM) for 72 h. Immunoblotting analysis is used to determine the protein levels with corresponding specific antibodies.
# (§1) Cells are lysed by either RIPA lysis buffer or nuclear and cytoplasmic extraction reagents (Thermo Fisher Scientific). Protein concentrations are determined by Bio-Rad protein assay reagent (Bio-Rad Laboratories, Hercules, Calif.). Equal amounts of protein samples (60 μg) are separated by 7-12% SDS-PAGE and the separated proteins are transferred onto polyvinylidene […] (PVDC) membrane overnight. The transferred protein membranes are blocked with 5% non-fat dried milk for 30 min, followed by incubation with specific primary antibodies overnight, and either horseradish peroxidase-conjugated goat anti-rabbit or anti-mouse antibodies for 2 h. The blots are detected using VL Chemi-Smart 3000 (Viogene Biotek, Sunnyvale, Calif.) with the enhanced chemiluminescence (ECL) western blotting reagent (Millipore, Billerica, Mass.).
# HNDFs [3] = test: Trypan blue exclusion cell proliferation assay in HNDFs; conditions: antcins 10 μM + HG 30 mM, 72 h, trypan blue exclusion
# Procedure: To further clarify the effect of antcins, HG-induced reduction in cell proliferation is determined. In FIG. 2D, to determine the effect of antcins on cell proliferation efficacy, 5×10^4 cells/well of HNDFs are incubated with antcins in 6-well plates in the presence of HG (30 mM) for 72 h. Number of viable cells is quantified by the tryphan blue exclusion method. Results are expressed as mean±S.E.M of three indipendent expriments. Statistical significance is set at ^ϕP<0.05 as compared to NG vs. HG and *P<0.05 as compared to HG vs. samples. […] Therefore, the molecular mechanism underlying the protective effect of ANM is explored next.
# Furthermore, in FIG. 3C, to determine the effect of ANM or NAC on cell proliferation, 5×10^4 cells/well of HNDFs are incubated in a 6-well plate with ANM (10 μM) or NAC (100 μM) in the presence of HG (30 mM) for 72 h. Number of viable cells is quantified by the tryphan blue exclusion method. Results expressed as mean±S.E.M of three independent experiments. Statistical significance is set at ^ϕP<0.05 as compared to NG vs. HG and *P<0.05 as compared to HG vs. samples.
# Cell proliferation is evaluated using trypan blue exclusion assay as described previously with minor modification. Cells are plated into 6-well plates at a density of 5×10^4 cells/well. After incubation overnight, cells are treated with test samples in the presence or absence of HG for 24-72 h. Cells exposed to 0.2% Trypan blue are then counted in a hemocytometer, and cells stained with Trypan blue are excluded. Percentage of viable cells is calculated based on the ratio of viable cells to total cell population in each well. The proliferation rate is calculated based on the number of viable cells in HG or sample-treated groups versus the NG-treated group.
# HNDFs (CCD966SK) = test: MTT cytotoxicity of antcins against HNDFs; conditions: for cytotoxicity to HNDFs (in words): MTT, 72 h, up to 20 μM; for IC50: MTT assay, 72 h, 1, 5, 10 and 20 μM tested, read-out: 50% inhibitory concentration (IC50) against HNDFs
# Procedure: Please refer to FIG. 2A˜FIG. 2D, which are views showing HG-induced senescence affected by antcins in HNDFs. As shown in the figures, prior to an investigation, cytotoxicity of antcins against HNDFs is determined. In FIG. 2A, type of antcins are subjected to screen for potential anti-aging agents for skin aging. Names and chemical structures of the antcins are shown in the left and center column, respectively. The cytotoxic effects of antcins against HNDFs are investigated. Briefly, HNDFs are incubated with increasing concentrations (1, 5, 10 and 20 μM) of antcins including ANA, ANB, ANC, ANH, ANK and ANM for 72 h and the cell viability is determined by MTT assay. The 50% inhibitory concentrations (IC50) of each compound against HNDFs are shown in right column.
# Cell viability is assessed by MTT colorimetric assay. Briefly, HNDFs (2×10^4cells/well) or HUVECs (5×10^4 cells/well) are seeded in a 24-well culture plate. After treatment with HG (15 and 30 mM) in the presence or absence of samples for 24-72 h, culture media is withdrawn and incubated with MTT (1 mg/mL) in fresh medium for 2 h. The MTT formazan crystals are dissolved in 400 μL of DMSO and the samples are measured at 570 nm […] using an ELISA microplate reader (Bio-Tek Instruments, Winooski, Vt.). The percentage of cell viability (%) is calculated as (A570 of treated cells/A570 of untreated cells)×100.
# p53 and FoxO1 = test: Western blot of p53 and FoxO1 acetylation/phosphorylation in HNDFs; conditions: pharmacological inhibitor in the presence of HG (FIG. 4G)
# Procedure: It is well known that p16^INK4A and p21^CIP1 are regulated by transcription factors p53 and FoxO1 followed by acetylation. […] In addition, p53 phosphorylation at Ser15 by their upstream kinases promotes transcriptional activation in response to DNA damage.
# To further examine the phenomenon that HG-induced p53 activation is relayed by the p38 MAPK or JNK/SAPK cascade, cells are incubated with corresponding pharmacological inhibitors, SB203580, SP600125, PD98059 and LY294002 for p38MAPK, JNK/SAPK, ERK1/2 and P13K/AKT, respectively in the presence of HG.
# (§2) The protein expression levels of SIRT-1, SIRT-6, p21^CIP1, SMP30, p53, FoxO and acetylation of p53 and FoxO1 are determined by western blot analysis.
# as §1
# Nrf2 = test: ARE luciferase reporter assay (Nrf2 transcriptional activity) in HNDFs; conditions: inhibitor 30 μM 2 h, then ANM 10 μM + HG 30 mM 6 h
# Procedure: Therefore, to determine whether ANM augments Nrf2 transcriptional activity, ARE-harboring luciferase reporter assay is used. In FIG. 5E, to determine the Nrf2 transcriptional activity, HNDFs are transiently transfected with ARE promoter construct using lipofectamine and incubated with ANM (10 μM) or NAC (100 μM) in the presence or absence of HG (30 mM) for 6 h. Cell lysates are mixed with luciferase reagents and quantified using an illuminometer. Relative ARE promoter activity is calculated by dividing the relative luciferace unit (RLU) of treated cells by RLU of untreated cells (NG).
# Activation of P13K/AKT and mitogen-activated protein kinases (MAPKs), including ERK1/2, JNK/SAPK and p38 MAPK, facilitates Nrf2 transcriptional activation in a variety of human cell lines. […] To elucidate the upstream signaling events involved in ANM-induced Nrf2 transcriptional activity, cells are pre-incubated with pharmacological inhibitors of P13K/AKT (LY294002), ERK1/2 (PD98059), SAPK/JNK (SP600125) and p38MAPK (SB203580) for 2 h and treated with ANM for 6 h in the presence of HG. In FIG. 5G, HNDFs are pre-incubated with AKT, ERK1/2, JNK/SAPK and p38 MAPK inhibitors, including LY294002 (LY, 30 μM), PD98059 (PD, 30 μM), SP600125 (SP, 30 μM) and SB203580 (SB, 30 μM), respectively, for 2 h and then incubated with ANM (10 μM) in the presence of HG (30 mM) for 6 h. Cytoplasmic and nuclear fractions are prepared and subjected to western blot analysis. GAPDH and histone H3 are served as internal controls for the cytoplasmic and nuclear fraction, respectively.
# ARE promoter activity is measured using a dual-luciferase reporter assay system (Promega, Madison, Wis.). […] Cells are then transfected with ARE plasmid (Qiagen, Hilden, Germany) using Lipofectamine 2000 (Invitrogen) and incubated for 36 h. […] The cell lysate is prepared and incubated with luciferase agents and the relative luminescence intensity is quantified using a spectrophotometer (Hidex Oy, Turku, Finland).
# SIRT-1, SIRT-3, SIRT-6 = test: Western blot of SIRT proteins and phos-SIRT-1 in HNDFs; conditions: inhibitor 30 μM + HG, 72 h
# Procedure: Total cell lysate is extracted and subjected to western blot analysis to monitor SIRT-1, SIRT-3, SIRT-6 protein levels.
# as §2
# To further understand the regulation of SIRT-1 by ANM, the effect of ANM on SIRT-1 activation and protein stability is examined under hyperglycemic conditions. In FIG. 7I, cells are incubated with JNK/SAPK or p38 MAPK inhibitors SP600125 (SP, 30 μM) and SB203580 (SB, 30 μM) in the presence of HG for 72 h. The protein expression levels of phos-SIRT-1 and SIRT-1 are determined by western blotting. Results are expressed as mean±S.E.M of three independent experiments. Statistical significance is set at ^ϕP<0.05 as compared to NG vs. HG and *P<0.05 as compared to HG vs. samples. Previous studies have shown that hyperphosphorylation of SIRT-1 at serine 47 (Ser47) is correlated with enhanced endothelial senescence. In addition, persistent activation of JNK1/2 by multiple factors including hyperglycemia induces extensive SIRT-1 proteasome degradation followed by phosphorylation at Ser47. […] Therefore, it is hypothesized that ANM-mediated suppression of JNK1/2 and p38 MAPK activation may have a functional role in the stability of SIRT-1 protein.
# as §1
compound,measurement,setting,value
"C=C(CC[C@@H](C)[C@H]1CC[C@H]2C3=C(C(=O)C[C@]12C)[C@@]1(C)CCC(=O)[C@@H](C)[C@@H]1CC3)C(C)C(=O)O (some centres unmarked) [ANA, antcin A]",SA-β-gal positive cells,HNDFs [1],7.46 fold
same,HG-induced p16^INK4A and p21^CIP1 protein expression,[2],moderate inhibition
same,cell proliferation (number of viable cells) vs HG group,HNDFs [3],partially increase
same,cytotoxicity to HNDFs (in words),HNDFs (CCD966SK),did not show significant cytotoxicity
"C=C(CC[C@@H](C)[C@H]1CC[C@H]2C3=C(C(=O)C[C@]12C)[C@@]1(C)CCC(=O)[C@@H](C)[C@@H]1CC3=O)[C@H](C)C(=O)O [ANB, antcin B]",IC50,HNDFs (CCD966SK),7.11 µM
same,cytotoxicity to HNDFs (in words),HNDFs (CCD966SK),strong cytotoxicity
"C=C(CC[C@@H](C)[C@H]1CC[C@H]2C3=C(C(=O)C[C@]12C)[C@@]1(C)CCC(=O)[C@@H](C)[C@@H]1C[C@@H]3O)[C@H](C)C(=O)O [ANC, antcin C]",cytotoxicity to HNDFs (in words),HNDFs (CCD966SK),did not show significant cytotoxicity
"C=C(CCC(C)C1CCC2C3=C(C(=O)C(O)C21C)C1(C)CCC(O)C(C)C1CC3=O)C(C)C(=O)O (centres unmarked) [ANH, antcin H]",SA-β-gal positive cells,HNDFs [1],8.13 fold
same,HG-induced p16^INK4A and p21^CIP1 protein expression,[2],moderate inhibition
same,cell proliferation (number of viable cells) vs HG group,HNDFs [3],partially increase
same,cytotoxicity to HNDFs (in words),HNDFs (CCD966SK),did not show significant cytotoxicity
"C=C(CC[C@@H](C)[C@H]1CC[C@H]2C3=C(C(=O)C[C@]12C)[C@@]1(C)CC[C@@H](O)[C@](C)(O)[C@@H]1C[C@@H]3O)C(C)C(=O)O (some centres unmarked) [ANK, antcin K]",IC50,HNDFs (CCD966SK),2.89 µM
same,cytotoxicity to HNDFs (in words),HNDFs (CCD966SK),strong cytotoxicity
"COc1cccc(-c2cc(=O)c3ccccc3o2)c1N [PD98059, reference compound]","HG-induced SA-β-gal activity, kinase inhibitors",HNDFs [1],does not affect
same,"HG-induced p16^INK4A expression and p53 phosphorylation, kinase inhibitors",p53 and FoxO1,fails to protect
same,ANM-induced ARE luciferase activity after inhibitor pretreatment,Nrf2,effectively suppresses
"C[S+]([O-])c1ccc(-c2nc(-c3ccncc3)c(-c3ccc(F)cc3)[nH]2)cc1 (centres unmarked) [SB203580, reference compound]","HG-induced SA-β-gal activity, kinase inhibitors",HNDFs [1],barely observed
same,"HG-induced p16^INK4A expression and p53 phosphorylation, kinase inhibitors",p53 and FoxO1,reduced
same,"SIRT-1 phosphorylation and reduction in SIRT-1, kinase inhibitors","SIRT-1, SIRT-3, SIRT-6",inhibits
same,ANM-induced ARE luciferase activity after inhibitor pretreatment,Nrf2,partially or barely inhibits
